# Test results: patent publication US8461181B2, “Fused heterocyclic compound and use thereof” (Sumitomo Chemical Company, Ltd., priority 2009, dated 2013)
# What was measured:
# Assay type in all cases: in vivo
# [1] = tested on: Aphis gossypii; test: Test Example 2: foot drench of cucumber seedling on urethane mat, Aphis gossypii; conditions: soil, 168 h, 5 ml drench at foot of cucumber seedling on urethane mat, inoculated one day after treatment, checked seven days after
# Procedure: The formulations of the present active compounds (4), (5), (8), (9), (11), (12), (14), (15), (17), (20), (35) to (45), (48) to (51), (54) to (56), (206), (209) and (211) to (213) obtained by Formulation Example 5 were diluted with water so that the active ingredient concentration was 500 ppm, to prepare diluted solutions for test. Separately, a cucumber seedling (second true leaf spreading stage) planted on a urethane mat was drenched at its foot with each 5 ml of the diluted solutions, and one day after treatment, the cucumber leaf surface was inoculated with 30 Aphis gossypii (whole stage). Further seven days after, the number of insect of living Aphis gossypii […] on the leaves of this cucumber was checked, and the control value was calculated according to the following formula. Control value (%)={1-(Cb×Tai)/(Cai×Tb)}×100 Letters in the formula represent the following meanings. Cb: the number of insect before treatment on non-treated district Cai: the number of insect in observation on non-treated district Tb: the number of insect before treatment on treated district Tai: the number of insect in observation on treated district
# [2] = tested on: Nilaparvata lugens; test: Test Example 7: foot drench of rice seedling, thirty first instar larvae of Nilaparvata lugens; conditions: soil, 144 h, 5 ml drench at foot of rice seedling, kept 7 days, thirty first instar larvae released, further 6 days
# Procedure: The formulations of the present active compounds (11), (13) to (15), (17), (23), (26), (35) to (41), (43) to (45), (48) to (51), (54), (55), (209), (211) and (212) obtained by Formulation Example 5 were diluted with water so that the active ingredient concentration was 500 ppm, to prepare diluted solutions for test. Separately, a rice seedling (2 weeks after sowing, second leaf spreading stage) planted on a plastic cup was drenched at its foot with each 5 ml of the diluted solutions, and kept in a greenhouse of 25° C. for 7 days. Thirty first instar larvae of Nilaparvata lugens were released, and further kept in the greenhouse for 6 days. The number of insect of living Nilaparvata lugens […] on rice was checked, and the control value was calculated according to the following formula. Control value (%)={1-(Cb×Tai)/(Cai×Tb)}×100 Letters in the formula represent the following meanings. Cb: the number of insect before treatment on non-treated district Cai: the number of insect in observation on non-treated district Tb: the number of insect before treatment on treated district Tai: the number of insect in observation on treated district
# [3] = tested on: Aphis gossypii; test: Test Example 4: foot drench of cucumber seedling in plastic cup, inoculation after 7 days, Aphis gossypii; conditions: soil, 144 h, 5 ml drench at foot of cucumber seedling in plastic cup, kept 7 days at 25° C., inoculated, further 6 days
# Procedure: The formulations of the present active compounds (3) to (7), (17), (19), (20), (22), (29) to (31), (35) to (37), (39), (41) to (45), (47) to (56), (101), (106), (121) to (123), (128), (131), (137), (139), (143), (145), (147), (211) to (213), (216) and (217) obtained by Formulation Example 5 were diluted with water so that the active ingredient concentration was 500 ppm, to prepare diluted solutions for test. Separately, a cucumber seedling (second true leaf spreading stage) planted on a plastic cup was drenched at its foot with each 5 ml of the diluted solutions, and kept in a greenhouse of 25° C. for 7 days. The cucumber leaf surface was inoculated with 30 Aphis gossypii (whole stage), and further kept in the greenhouse for 6 days, then, the number of insect of living Aphis gossypii […] on the leaves of this cucumber was checked, and the control value was calculated according to the following formula. Control value (%)={1-(Cb×Tai)/(Cai×Tb)}×100 Letters in the formula represent the following meanings. Cb: the number of insect before treatment on non-treated district Cai: the number of insect in observation on non-treated district Tb: the number of insect before treatment on treated district Tai: the number of insect in observation on treated district
# [4] = tested on: Aphis gossypii; test: Test Example 3: root immersion of cucumber seedling, Aphis gossypii; conditions: 168 h, cucumber root part immersed in 5 ml, inoculated one day after treatment, checked seven days after
# Procedure: The formulations of the present active compounds (18), (19), (21), (22), (24), (25), (28), (31) to (34), (46), (47), (52), (53), (101) to (104), (106) to (108), (112) to (114), (117), (118), (122), (123), (126), (128), (129), (133), (134), (138), (144), (153) to (155) and (157) obtained by Formulation Example 5 were diluted with water so that the active ingredient concentration was 500 ppm, to prepare diluted solutions for test. A root part of a cucumber seedling (first true leaf spreading stage) from which soil had been washed off was immersed in 5 ml of this diluted solution, and one day after treatment, the cucumber leaf surface was inoculated with 30 Aphis gossypii (whole stage). Further seven days after, the number of insect of living Aphis gossypii […] on the leaves of this cucumber was checked, and the control value was calculated according to the following formula. Control value (%)={1-(Cb×Tai)/(Cai×Tb)}×100 Letters in the formula represent the following meanings. Cb: the number of insect before treatment on non-treated district Cai: the number of insect in observation on non-treated district Tb: the number of insect before treatment on treated district Tai: the number of insect in observation on treated district
# [5] = tested on: Bemisia tabaci; test: Test Example 5: spray on tomato seedling with Bemisia tabaci larvae; conditions: 168 h, 10 ml/cup sprayed on tomato seedling with hatching Bemisia tabaci larvae, 7 days at 25° C.
# Procedure: The formulations of the present active compounds (1) to (5), (7) to (15), (17) to (21), (25), (28) to (45), (48) to (56), (101) to (103), (106), (107), (117), (118), (121) to (145), (147) to (151), (153) to (155), (204), (206), (208), (209), (211) to (213) and (216) to (221) obtained by Formulation Example 5 were diluted with water so that the active ingredient concentration was 500 ppm, to prepare spray solutions for test. Separately, on a tomato seedling planted on a plastic cup, Bemisia tabaci adult insects were released and allowed to lay eggs for about 24 hours. The tomato seedling was kept in a greenhouse […], and the above-described spray solutions for test were sprayed at a proportion of 10 ml/cup on the condition of hatching of larvae from the laid eggs, and kept in a greenhouse of 25° C. for 7 days. The number of living larvae on the tomato leaves was checked, and the control value was calculated according to the following formula. Control value (%)={1−(Cb×Tai)/(Cai×Tb)}×100 Letters in the formula represent the following meanings. Cb: the number of insect before treatment on non-treated district Cai: the number of insect in observation on non-treated district Tb: the number of insect before treatment on treated district Tai: the number of insect in observation on treated district
# [6] = tested on: Nilaparvata lugens; test: Test Example 8: spray on rice seedling, 20 first instar larvae of Nilaparvata lugens; conditions: 144 h, 10 ml sprayed on rice seedling, 20 first instar larvae released, 6 days at 25° C.
# Procedure: The formulations of the present active compounds (6), (7), (18), (21), (24), (25), (28) to (30), (32), (46), (52), (101) to (103), (105) to (107), (111), (112), (115), (119) to (124), (126) to (130), (133) to (135), (139), (142), (144) to (146), (149) to (151), (153), (154), (216) and (217) obtained by Formulation Example 5 were diluted with water so that the active ingredient concentration was 500 ppm, to prepare spray solutions for test. Separately, on a rice seedling (2 weeks after sowing, second leaf spreading stage) planted on a plastic cup, the drug solutions for test prepared as described above were sprayed each in an amount of 10 ml. After drying of the drug solution sprayed on rice, 20 first instar larvae of Nilaparvata lugens were released, and kept in a greenhouse of 25° C. for 6 days. Thereafter, the number of Nilaparvata lugens […] on rice was checked, and the control value was calculated according to the following formula. Control value (%)={1-(Cb×Tai)/(Cai×Tb)}×100 Letters in the formula represent the following meanings. Cb: the number of insect before treatment on non-treated district Cai: the number of insect in observation on non-treated district Tb: the number of insect before treatment on treated district Tai: the number of insect in observation on treated district
# [7] = tested on: Nilaparvata lugens; test: Test Example 9: foot drench of rice seedling, twenty first instar larvae of Nilaparvata lugens; conditions: soil, 144 h, 5 ml drench at foot of rice seedling, kept 7 days, twenty first instar larvae released, further 6 days
# Procedure: The formulations of the present active compounds (6), (7), (18), (22), (25), (30), (33), (46), (47), (53), (101) to (103), (106), (121) to (124), (126) to (128), (135), (139), (216) and (217) obtained by Formulation Example 5 were diluted with water so that the active ingredient concentration was 500 ppm, to prepare diluted solutions for test. Separately, a rice seedling (2 weeks after sowing, second leaf spreading stage) planted on a plastic cup was drenched at its foot with each 5 ml of the diluted solutions, and kept in a greenhouse of 25° C. for 7 days. Twenty first instar larvae of Nilaparvata lugens were released, and further kept in the greenhouse for 6 days, then, the number of insect of living Nilaparvata lugens […] on rice was checked, and the control value was calculated according to the following formula. Control value (%)={1-(Cb×Tai)/(Cai×Tb)}×100 Letters in the formula represent the following meanings. Cb: the number of insect before treatment on non-treated district Cai: the number of insect in observation on non-treated district Tb: the number of insect before treatment on treated district Tai: the number of insect in observation on treated district
SMILES,pest or weed control at 500 ppm [2] [%],pest or weed control at 500 ppm [5] [%],other results
"CC(C)Oc1cnccc1-c1nc2cc(C(F)(F)F)ccc2n1C [present active compound 11, 2-(3-isopropoxypyridin-4-yl)-1-methyl-5-trifluoromethyl-1H-benzimidazole]",≥ 90,,pest or weed control at 500 ppm [1]: ≥ 90%
"CSc1cnccc1-c1nc2cc(C(F)(F)F)ccc2n1C [present active compound 17, 1-methyl-2-(3-methylthiopyridin-4-yl)-5-trifluoromethyl-1H-benzimidazole]",≥ 90,,pest or weed control at 500 ppm [1]: ≥ 90%; pest or weed control at 500 ppm [3]: ≥ 90%
"CC(C)Sc1cnccc1-c1nc2cc(C(F)(F)F)ccc2n1C [present active compound 23, 2-(3-isopropylthiopyridin-4-yl)-1-methyl-5-trifluoromethyl-1H-benzimidazole]",≥ 90,,
"Cn1c(-c2cc[n+]([O-])cc2F)nc2cc(C(F)(F)F)ccc21 [present active compound 25, 2-(3-fluoro-1-oxypyridin-4-yl)-1-methyl-5-trifluoromethyl-1H-benzimidazole]",,≥ 90,pest or weed control at 500 ppm [4]: ≥ 90%; pest or weed control at 500 ppm [6]: ≥ 90%; pest or weed control at 500 ppm [7]: ≥ 90%
"Cn1c(-c2ccnc(F)c2)nc2cc(C(F)(F)F)ccc21 [present active compound 26, 2-(2-fluoropyridin-4-yl)-1-methyl-5-trifluoromethyl-1H-benzimidazole]",≥ 90,,
"Cn1c(-c2ccncc2SCC(F)(F)F)nc2cc(C(F)(F)F)cnc21 [present active compound 54, 3-methyl-2-[3-(2,2,2-trifluoroethylthio)pyridin-4-yl]-6-trifluoromethyl-3H-imidazo[4,5-b]pyridine]",≥ 90,,
"Cn1c(-c2cc[n+]([O-])cc2)nc2cc(C(F)(F)F)cnc21 [present active compound 55, 3-methyl-2-(1-oxypyridin-4-yl)-6-trifluoromethyl-3H-imidazo[4,5-b]pyridine]",≥ 90,,
Cn1c(-c2ccncc2SC(C)(C)C)nc2cc(C(F)(F)F)cnc21 [present active compound 107],,≥ 90,
CNS(=O)(=O)c1cnccc1-c1nc2cc(C(F)(F)F)cnc2n1C [present active compound 117],,≥ 90,pest or weed control at 500 ppm [4]: ≥ 90%
Cn1c(-c2ccncc2C#N)nc2cc(C(F)(F)F)cnc21 [present active compound 118],,≥ 90,pest or weed control at 500 ppm [4]: ≥ 90%
"CCn1c(-c2ccncc2)nc2ccc(C(F)(F)F)cc21 [present active compound 204, 1-ethyl-2-pyridin-4-yl-6-trifluoromethyl-1H-benzimidazole]",,≥ 90,
"C#Cc1cnccc1-c1nc2cc(C(F)(F)F)cnc2n1C [present active compound 211, 2-(3-ethynylpyridin-4-yl-)-3-methyl-6-trifluoromethyl-3H-imidazo[4,5-b]pyridine]",≥ 90,,
"Cn1c(-c2ccncc2C(F)(F)F)nc2cc(C(F)(F)F)cnc21 [present active compound 212, 3-methyl-6-trifluoromethyl-2-(3-trifluoromethylpyridin-4-yl-)-3H-imidazo[4,5-b]pyridine]",≥ 90,,
